From PubChem BioAssay (NCI) come the findings set out here.

Each structure is given as a SMILES string.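 Five compound concentrations were applied to cells in 96-well plates for 48 hours; endpoints were derived by simple linear interpolation of the resulting dose-response curve. TGI marks complete inhibition of growth.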 A value given as a limit tells only on which side of the number the result lay.

The first test concerns SF-268 CNS. Briefly: inhibition of tumour cell growth, NCI panel, 48 h.
`COc1ccc2c(C)cc(N/N=C(\C)C=O)nc2c1` came in with a TGI of 41.1 µM.

The molecule `S=c1sc2c(s1)SCCCCSCCCCSc1sc(=S)sc1SCCCCSCCCCS2` had a TGI of more than 100 µM.

Molecule `COc1ccc2oc(=N)c(C(=O)NCc3ccccc3)cc2c1` came in with a TGI of 52.5 µM.

`O=C1c2ccccc2S(=O)(=O)c2c1cccc2[N+](=O)[O-]` had a TGI of more than 9.38 µM.

Turning to `O=C(CCCN1CCC2(CC1)OC(=O)N(c1ccccc1)C2=O)c1ccccc1`, the TGI is more than 100 µM.

For the molecule `O=C1c2c(ccc3c2CCCC3)CC12Cc1ccc3c(c1C2=O)CCCC3`, the TGI was more than 100 µM.

`CCOC(CN=C=S)OCC` came in with a TGI of more than 10 µM.

Regarding `O=CC(=C(I)I)c1ccccc1`, the TGI was found to be 9.97 µM.

Molecule `O=C1C=C2C(=NC34CCCCC3C(c3ccccc3)C3=C(c5ccccc5CC3)N24)c2ccccc21` (centres undefined) displayed a TGI of more than 10 µM.

The molecule `COCCN(C(C)=O)C1CCC2(SCCS2)c2[nH]c3ccccc3c21` (centres undefined) showed a TGI of more than 100 µM.

Molecule `[N-]=[N+]=Nc1c(C=O)c(=O)n2c3c(cccc13)CCC2` came in with a TGI of 35.4 µM.

As for `NC(=O)NNc1nc2ccccc2c(=O)n1NC(=O)C(=O)Nc1ccc(Cl)cc1Cl`, the TGI is more than 100 µM.

The molecule `COC(O)C(=O)c1c2c(cc3c1CC1(Cc4cc5c(cc4C1)CCC5)C3)CCC2` (centres undefined) yielded a TGI of 36.1 µM.

A further test relates to MOLT-4 leukemia. Briefly: inhibition of tumour cell growth, NCI panel, 48 h.
`COc1ccc2c(C)cc(N/N=C(\C)C=O)nc2c1`: the TGI stood at 15.9 µM.

In turn, `S=c1sc2c(s1)SCCCCSCCCCSc1sc(=S)sc1SCCCCSCCCCS2` displayed a TGI of more than 100 µM.

The molecule `COc1ccc2oc(=N)c(C(=O)NCc3ccccc3)cc2c1` had a TGI of more than 100 µM.

The molecule `O=C1c2ccccc2S(=O)(=O)c2c1cccc2[N+](=O)[O-]` gave a TGI of 6.04 µM.

For the molecule `O=C(CCCN1CCC2(CC1)OC(=O)N(c1ccccc1)C2=O)c1ccccc1`, the TGI was more than 100 µM.

The molecule `O=C1c2c(ccc3c2CCCC3)CC12Cc1ccc3c(c1C2=O)CCCC3` came in with a TGI of more than 100 µM.

Consider `CCOC(CN=C=S)OCC`, for which the TGI is more than 10 µM.

On to `O=CC(=C(I)I)c1ccccc1`, for which the TGI was found to be 0.944 µM.

For `O=C1C=C2C(=NC34CCCCC3C(c3ccccc3)C3=C(c5ccccc5CC3)N24)c2ccccc21` (centres undefined), the TGI is more than 10 µM.

In turn, `COCCN(C(C)=O)C1CCC2(SCCS2)c2[nH]c3ccccc3c21` (centres undefined) came in with a TGI of more than 100 µM.

For `[N-]=[N+]=Nc1c(C=O)c(=O)n2c3c(cccc13)CCC2`, the TGI amounted to 4.26 µM.

`NC(=O)NNc1nc2ccccc2c(=O)n1NC(=O)C(=O)Nc1ccc(Cl)cc1Cl`: the TGI was more than 100 µM.

Regarding `COC(O)C(=O)c1c2c(cc3c1CC1(Cc4cc5c(cc4C1)CCC5)C3)CCC2` (centres undefined), the TGI turned out to be 33.8 µM.

In turn, `CCC1NC(=O)C1NC(=O)OC` (centres undefined) displayed a TGI of more than 100 µM.

The test system of the next test is OVCAR-8 ovarian. Briefly: inhibition of tumour cell growth, NCI panel, 48 h.
`COc1ccc2c(C)cc(N/N=C(\C)C=O)nc2c1` came in with a TGI of 25 µM.

In turn, `S=c1sc2c(s1)SCCCCSCCCCSc1sc(=S)sc1SCCCCSCCCCS2` had a TGI of more than 100 µM.

`COc1ccc2oc(=N)c(C(=O)NCc3ccccc3)cc2c1` yielded a TGI of 40.4 µM.

`O=C1c2ccccc2S(=O)(=O)c2c1cccc2[N+](=O)[O-]` had a TGI of 5.46 µM.

Regarding `O=C(CCCN1CCC2(CC1)OC(=O)N(c1ccccc1)C2=O)c1ccccc1`, the TGI is more than 100 µM.

The molecule `O=C1c2c(ccc3c2CCCC3)CC12Cc1ccc3c(c1C2=O)CCCC3` had a TGI of more than 100 µM.

`CCOC(CN=C=S)OCC` showed a TGI of more than 10 µM.

Turning to `O=CC(=C(I)I)c1ccccc1`, the TGI is 6.95 µM.

In turn, `O=C1C=C2C(=NC34CCCCC3C(c3ccccc3)C3=C(c5ccccc5CC3)N24)c2ccccc21` (centres undefined) displayed a TGI of more than 10 µM.

Consider `COCCN(C(C)=O)C1CCC2(SCCS2)c2[nH]c3ccccc3c21` (centres undefined), for which the TGI was more than 100 µM.

Molecule `[N-]=[N+]=Nc1c(C=O)c(=O)n2c3c(cccc13)CCC2` returned a TGI of 17.8 µM.

In turn, `NC(=O)NNc1nc2ccccc2c(=O)n1NC(=O)C(=O)Nc1ccc(Cl)cc1Cl` yielded a TGI of more than 100 µM.

Take `COC(O)C(=O)c1c2c(cc3c1CC1(Cc4cc5c(cc4C1)CCC5)C3)CCC2` (centres undefined): the TGI worked out at 33.6 µM.

In the case of `CCC1NC(=O)C1NC(=O)OC` (centres undefined), the TGI was more than 100 µM.

The test system of another test is SF-539 CNS. Briefly: inhibition of tumour cell growth, NCI panel, 48 h.
In turn, `COc1ccc2c(C)cc(N/N=C(\C)C=O)nc2c1` displayed a TGI of 20.3 µM.

Molecule `S=c1sc2c(s1)SCCCCSCCCCSc1sc(=S)sc1SCCCCSCCCCS2` registered a TGI of more than 100 µM.

Molecule `COc1ccc2oc(=N)c(C(=O)NCc3ccccc3)cc2c1` came in with a TGI of 56.6 µM.

With `O=C1c2ccccc2S(=O)(=O)c2c1cccc2[N+](=O)[O-]`, the TGI was 4.34 µM.

In turn, `O=C(CCCN1CCC2(CC1)OC(=O)N(c1ccccc1)C2=O)c1ccccc1` registered a TGI of more than 100 µM.

Regarding `O=C1c2c(ccc3c2CCCC3)CC12Cc1ccc3c(c1C2=O)CCCC3`, the TGI is more than 100 µM.

`CCOC(CN=C=S)OCC` had a TGI of more than 10 µM.

Turning to `O=CC(=C(I)I)c1ccccc1`, the TGI came to 5.17 µM.

For `O=C1C=C2C(=NC34CCCCC3C(c3ccccc3)C3=C(c5ccccc5CC3)N24)c2ccccc21` (centres undefined), the TGI was more than 10 µM.

In turn, `COCCN(C(C)=O)C1CCC2(SCCS2)c2[nH]c3ccccc3c21` (centres undefined) had a TGI of more than 100 µM.

With `[N-]=[N+]=Nc1c(C=O)c(=O)n2c3c(cccc13)CCC2`, the TGI is 36.1 µM.

Take `NC(=O)NNc1nc2ccccc2c(=O)n1NC(=O)C(=O)Nc1ccc(Cl)cc1Cl`: the TGI was more than 100 µM.

The molecule `COC(O)C(=O)c1c2c(cc3c1CC1(Cc4cc5c(cc4C1)CCC5)C3)CCC2` (centres undefined) came in with a TGI of 31.5 µM.

`CCC1NC(=O)C1NC(=O)OC` (centres undefined): the TGI was more than 100 µM.

Another test concerns MDA-MB-435. Briefly: inhibition of tumour cell growth, NCI panel, 48 h.
`COc1ccc2c(C)cc(N/N=C(\C)C=O)nc2c1` came in with a TGI of 25.5 µM.

The molecule `S=c1sc2c(s1)SCCCCSCCCCSc1sc(=S)sc1SCCCCSCCCCS2` displayed a TGI of more than 100 µM.

The molecule `COc1ccc2oc(=N)c(C(=O)NCc3ccccc3)cc2c1` gave a TGI of 34.2 µM.

With `O=C1c2ccccc2S(=O)(=O)c2c1cccc2[N+](=O)[O-]`, the TGI came out at 3.64 µM.

As to `O=C(CCCN1CCC2(CC1)OC(=O)N(c1ccccc1)C2=O)c1ccccc1`, the TGI is more than 100 µM.

On to `O=C1c2c(ccc3c2CCCC3)CC12Cc1ccc3c(c1C2=O)CCCC3`, for which the TGI is more than 100 µM.

As to `CCOC(CN=C=S)OCC`, the TGI is more than 10 µM.

In the case of `O=CC(=C(I)I)c1ccccc1`, the TGI was determined as 5.65 µM.

`O=C1C=C2C(=NC34CCCCC3C(c3ccccc3)C3=C(c5ccccc5CC3)N24)c2ccccc21` (centres undefined) returned a TGI of more than 10 µM.

In turn, `COCCN(C(C)=O)C1CCC2(SCCS2)c2[nH]c3ccccc3c21` (centres undefined) gave a TGI of more than 100 µM.

Molecule `[N-]=[N+]=Nc1c(C=O)c(=O)n2c3c(cccc13)CCC2` gave a TGI of 20.1 µM.

The molecule `NC(=O)NNc1nc2ccccc2c(=O)n1NC(=O)C(=O)Nc1ccc(Cl)cc1Cl` showed a TGI of more than 100 µM.

`COC(O)C(=O)c1c2c(cc3c1CC1(Cc4cc5c(cc4C1)CCC5)C3)CCC2` (centres undefined) returned a TGI of 6.58 µM.

As for `CCC1NC(=O)C1NC(=O)OC` (centres undefined), the TGI was more than 100 µM.
